The values that follow come from patent US20260184663A1, “INDENE COMPOUNDS, PHARMACEUTICAL COMPOSITIONS THEREOF, AND THEIR THERAPEUTIC APPLICATIONS” (NucMito Pharmaceuticals co. Ltd., priority 2022, published 2026).

What all share (assay type): cell-based
For one test, the system named is HeLa (cervical cancer). Kind of test: Antiproliferative activity (CCK-8 cell viability), HeLa. As to conditions: Homo sapiens, 72 h, read-out: Antiproliferative activity in cancerous cells, HELA (inhibition of cell growth); for inhibition at 3.3 µM: Compound concentration: 3.3 μM; for inhibition at 10 µM: Compound concentration: 10 μM; for inhibition at 30 µM: Compound concentration: 30 μM. In short, it runs like this:
(§1)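 Cells were seeded at 2,000-5,000/well (HeLa in MEM, HepG2 and SW480 in DMEM, A549 in F-12K, all with 10% FBS) and treated with compound at 3.3, 10 or 30 μM for 72 h at 37° C. CCK-8 was added for 4 h, absorbance was read at 450 nm, and viability was expressed relative to DMSO-treated wells.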

The test system of test [1] is MDA-MB-231 (breast cancer). Description: Antiproliferative activity (CCK-8 cell viability), MDA-MB-231. As to conditions: Homo sapiens, 72 h, read-out: Antiproliferative activity in cancerous cells, MDA-MB-231 (inhibition of cell growth); for inhibition at 3.3 µM: Compound concentration: 3.3 μM; for inhibition at 10 µM: Compound concentration: 10 μM; for inhibition at 30 µM: Compound concentration: 30 μM. Put shortly:
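In this CCK-8 viability assay, MDA-MB-231 cells maintained in Dulbecco's modified Eagle's medium containing 10% fetal bovine serum were placed in 96-well plates (2,000-5,000 cells/well) and treated with compound for 72 h at 37° C. A 4 h incubation with 10 μL CCK-8 followed, plates were read at 450 nm, and viability was expressed against DMSO vehicle wells across replicates.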

The test system of test [2] is B16F10 (malignant melanoma). Description: Antiproliferative activity (CCK-8 cell viability), B16F10. As to conditions: Mus musculus, 72 h, read-out: Antiproliferative activity in cancerous cells, B16F10 (inhibition of cell growth); for inhibition at 3.3 µM: B16-F10, Compound concentration: 3.3 μM; for inhibition at 10 µM: B16-F10, Compound concentration: 10 μM; for inhibition at 30 µM: B16-F10, Compound concentration: 30 μM. In short, it runs like this:
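Attached B16F10 cells in 96-well plates were incubated with compound at 37° C for 72 h, followed by 10 μL CCK-8 reagent per well and a further 4 h incubation. A multi-well plate reader measured absorbance at 450 nm. Percent viability across replicates was calculated against DMSO vehicle-treated cells.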

The subject of a further test is SW480 (colon cancer). Kind of test: Antiproliferative activity (CCK-8 cell viability), SW480. As to conditions: Homo sapiens, 72 h, read-out: Antiproliferative activity in cancerous cells, SW480 (inhibition of cell growth); for inhibition at 3.3 µM: Compound concentration: 3.3 μM; for inhibition at 10 µM: Compound concentration: 10 μM; for inhibition at 30 µM: Compound concentration: 30 μM. Put shortly: as §1

The subject of test [3] is A549 (lung adenocarcinoma). Kind of test: Antiproliferative activity (CCK-8 cell viability), A549. As to conditions: Homo sapiens, 72 h, read-out: Antiproliferative activity in cancerous cells, A549 (inhibition of cell growth); for inhibition at 3.3 µM: Compound concentration: 3.3 μM; for inhibition at 10 µM: Compound concentration: 10 μM; for inhibition at 30 µM: Compound concentration: 30 μM. Put shortly:
as §1

Test [4] relates to A431 (epidermoid carcinoma). Description: Antiproliferative activity (CCK-8 cell viability), A431. As to conditions: Homo sapiens, 72 h, read-out: Antiproliferative activity in cancerous cells, A431 (inhibition of cell growth); for inhibition at 3.3 µM: A-431, Compound concentration: 3.3 μM; for inhibition at 10 µM: A-431, Compound concentration: 10 μM; for inhibition at 30 µM: A-431, Compound concentration: 30 μM. Put shortly: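 Cell viability of compound-treated A431 cells was measured with a Cell Counting Kit-8. Each well received 10 μL of CCK-8 after 72 h of compound exposure, followed by 4 h incubation at 37° C. and a 450 nm plate-reader measurement. Percent viability was calculated relative to DMSO controls across replicates.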

Another test relates to HepG2 (liver cancer). Kind of test: Antiproliferative activity (CCK-8 cell viability), HepG2. As to conditions: Homo sapiens, 72 h, read-out: Antiproliferative activity in cancerous cells, HepG2 (inhibition of cell growth); for inhibition at 3.3 µM: Compound concentration: 3.3 μM; for inhibition at 10 µM: Compound concentration: 10 μM; for inhibition at 30 µM: Compound concentration: 30 μM. In short, it runs like this: as §1

Bounds are passed on as bounds.

For the molecule `CC1=C(CC(=O)O)c2cc(C)ccc2/C1=C\c1ccc(COCc2ccc(F)cc2)cc1` [B110, (Z)-2-(1-(4-(((4-Fluorobenzyl)oxy)methyl)benzylidene)-2,5-dimethyl-1H-inden-3-yl)acetic acid], the inhibition at 3.3 µM was < 30% in the test with HeLa (cervical cancer); ≥ 50% in test [1]; ≥ 50% in test [2]; < 30% with SW480 (colon cancer); 30 to 50% in test [3]; 30 to 50% in test [4]. Also, the inhibition at 3.3 µM with HepG2 (liver cancer) was < 30%. Moreover, the inhibition at 10 µM (in the test on HeLa (cervical cancer); in test [1]; in test [2]; in the test with SW480 (colon cancer); in test [3]; in test [4]) was ≥ 50% in each case. The inhibition at 10 µM in the test with HepG2 (liver cancer) was 30 to 50%.
With `CC1=C(CC(=O)O)c2cc(F)ccc2/C1=C\c1cccc(C2(c3ccccc3)SCCS2)c1` [C352, (Z)-2-(5-Fluoro-2-methyl-1-(3-(2-phenyl-1,3-dithiolan-2-yl)benzylidene)-1H-inden-3-yl)acetic acid], the inhibition at 3.3 µM in the test with HeLa (cervical cancer) is < 30%; in test [1] it was 30 to 50%; in test [2], < 30%; in the test with SW480 (colon cancer), < 30%; in test [3], < 30%; in test [4] it was < 30%. The inhibition at 3.3 µM in the test with HepG2 (liver cancer) is < 30%. Moreover, the inhibition at 10 µM (in the test with HeLa (cervical cancer); in test [1]; in test [2]; in the test on SW480 (colon cancer); in test [3]; in test [4]) was ≥ 50% each time. Further, the inhibition at 10 µM with HepG2 (liver cancer) was ≥ 50%. Moreover, the inhibition at 30 µM (with HeLa (cervical cancer); in test [1]; in test [2]; in the test on SW480 (colon cancer); in test [3]; in test [4]) was ≥ 50% each time. For the same molecule, the inhibition at 30 µM with HepG2 (liver cancer) was ≥ 50%.
Turning to `CC1=C(CC(=O)O)c2c(F)ccc(F)c2/C1=C\c1ccc(C(C)C)cc1` [D4, (Z)-2-(4,7-Difluoro-1-(4-isopropylbenzylidene)-2-methyl-1H-inden-3-yl)acetic acid], the inhibition at 3.3 µM in the test on HeLa (cervical cancer) was ≥ 50%; in test [1] it was 30 to 50%; in test [2], 30 to 50%; with SW480 (colon cancer) it was < 30%; in test [3], < 30%; in test [4] it was < 30%. In addition, in the test with HepG2 (liver cancer), the inhibition at 3.3 µM was < 30%. In addition, the inhibition at 10 µM in the test with HeLa (cervical cancer) was ≥ 50%; in test [1] it was 30 to 50%; in test [2] it was ≥ 50%; in the test on SW480 (colon cancer) it was < 30%; in test [3], 30 to 50%; in test [4] it was < 30%. The inhibition at 10 µM in the test with HepG2 (liver cancer) was < 30%. Besides, the inhibition at 30 µM (with HeLa (cervical cancer); in test [1]; in test [2]; in the test with SW480 (colon cancer); in test [3]; in test [4]) was ≥ 50% in each case. The inhibition at 30 µM with HepG2 (liver cancer) was ≥ 50%.
With `CC1=C(CC(=O)O)c2cc(F)ccc2/C1=C\c1ccc(OCCc2ccc(Cl)cc2)cc1` [B35, (Z)-2-(1-(4-(4-Chlorophenethoxy)benzylidene)-5-fluoro-2-methyl-1H-inden-3-yl)acetic acid], the inhibition at 3.3 µM with HeLa (cervical cancer) was < 30%; in test [1] it was ≥ 50%; in test [2], ≥ 50%; with SW480 (colon cancer), < 30%; in test [3], ≥ 50%; in test [4], ≥ 50%. In addition, the inhibition at 3.3 µM with HepG2 (liver cancer) fell in the range of 30 to 50%. Besides, the inhibition at 10 µM (in the test on HeLa (cervical cancer); in test [1]; in test [2]; with SW480 (colon cancer); in test [3]; in test [4]) was ≥ 50% throughout. Also, in the test with HepG2 (liver cancer), the inhibition at 10 µM was ≥ 50%.
As for `CC1=C(CC(=O)O)c2c(F)cc(F)cc2/C1=C\c1ccc(C(F)(F)F)cc1` [D5, (Z)-2-(4,6-Difluoro-2-methyl-1-(4-(trifluoromethyl)benzylidene)-1H-inden-3-yl)-acetic acid], the inhibition at 3.3 µM with HeLa (cervical cancer) was < 30%; in test [1], < 30%; in test [2], < 30%; in the test on SW480 (colon cancer) it was < 30%; in test [3] it was 30 to 50%; in test [4], ≥ 50%. In the test with HepG2 (liver cancer), the inhibition at 3.3 µM was < 30%. Moreover, the inhibition at 10 µM in the test on HeLa (cervical cancer) is ≥ 50%; in test [1], 30 to 50%; in test [2] it was ≥ 50%; in the test on SW480 (colon cancer), < 30%; in test [3], ≥ 50%; in test [4], ≥ 50%. Also, the inhibition at 10 µM in the test with HepG2 (liver cancer) is < 30%. Further, the inhibition at 30 µM in the test on HeLa (cervical cancer) is ≥ 50%; in test [1] it was ≥ 50%; in test [2] it was ≥ 50%; in the test on SW480 (colon cancer) it was < 30%; in test [3], ≥ 50%; in test [4] it was ≥ 50%. For the same molecule, the inhibition at 30 µM in the test on HepG2 (liver cancer) was 30 to 50%.
As for `CC1=C(CC(=O)O)c2cc(F)ccc2/C1=C\c1ccc(Oc2ccc(Cl)cc2)cc1C` [C64, (Z)-2-(1-(4-(4-Chlorophenoxy)-2-methylbenzylidene)-5-fluoro-2-methyl-1H-inden-3-yl)acetic acid], the inhibition at 3.3 µM with HeLa (cervical cancer) is ≥ 50%; in test [1], < 30%; in test [2], 30 to 50%; with SW480 (colon cancer), < 30%; in test [3], 30 to 50%; in test [4] it was ≥ 50%. Besides, the inhibition at 3.3 µM in the test on HepG2 (liver cancer) is ≥ 50%. For the same molecule, the inhibition at 10 µM in the test with HeLa (cervical cancer) is ≥ 50%; in test [1] it was 30 to 50%; in test [2], ≥ 50%; in the test with SW480 (colon cancer) it was ≥ 50%; in test [3] it was ≥ 50%; in test [4], ≥ 50%. In the test with HepG2 (liver cancer), the inhibition at 10 µM was ≥ 50%.

What is called inhibition is the share of the control response that was lost under treatment.
